Consider two molecules from ChEMBL document CHEMBL1143031, “First synthesis of 7alpha- and 7beta-amino-DHEA, dehydroepiandrosterone (DHEA) analogues and preliminary evaluation of their cytotoxicity on Leydig cells and TM4 Sertoli cells” (2007).

Common to all, as to format: functional
The nature of assay [1]: Effect on necrosis in BALB/c mouse sertoli TM4 cells assessed as cell viability at 70 uM after 24 hrs by Trypan blue test. To be noted: TM4, 24 h, read-out: Activity.
Assay [2] in a line: Effect on apoptosis in BALB/c mouse sertoli TM4 cells assessed as cell viability at 35 uM after 24 hrs by DAPI test. To be noted: TM4, 24 h, read-out: Activity.
Assay [3] in a line: Effect on cell necrosis in Sprague-Dawley rat Leydig cells assessed as cell viability at 70 uM after 24 hrs by trypan blue test. Particulars: read-out: Activity.
Assay [4] in a line: Effect on apoptosis in BALB/c mouse sertoli TM4 cells assessed as cell viability at 70 uM after 24 hrs by DAPI test. Particulars: TM4, 24 h, read-out: Activity.
The nature of assay [5]: Effect on necrosis in BALB/c mouse sertoli TM4 cells assessed as cell viability at 35 uM after 24 hrs by Trypan blue test. Particulars: TM4, 24 h, read-out: Activity.
A short description of assay [6]: Effect on apoptosis in Sprague-Dawley rat Leydig cells assessed as cell viability at 35 uM after 24 hrs by DAPI test. Particulars: read-out: Activity.
Assay [7] in a line: Effect on apoptosis in Sprague-Dawley rat Leydig cells assessed as cell viability at 70 uM after 24 hrs by DAPI test. Particulars: read-out: Activity.
Assay [8] in a line: Effect on cell necrosis in Sprague-Dawley rat Leydig cells assessed as cell viability at 35 uM after 24 hrs by trypan blue test. Particulars: read-out: Activity.

As to `C[C@]12CC[C@H](O)CC1=C[C@H](N)[C@@H]1[C@@H]2CC[C@]2(C)C(=O)CC[C@@H]12`, the viability at 70 µM in assay [1] was found to be 0%; in assay [3] it was 85%; in assay [4] it was 79%; in assay [7] it was 89%. Also, the viability at 35 µM in assay [2] was determined as 82%; in assay [5], 64%; in assay [6] it was 92%; in assay [8] it was 93%.

On to `C[C@]12CC[C@H](O)CC1=CC[C@@H]1[C@@H]2CC[C@]2(C)C(=O)CC[C@@H]12` [PRASTERONE], for which the viability at 70 µM was determined as 92% in assay [1], 76% in assay [3], 90% in assay [4] and 95% in assay [7]. Moreover, the viability at 35 µM in assay [2] worked out at 90%; in assay [5] it was 92%; in assay [6] it was 95%; in assay [8], 86%.
